For one test, the target named is T1, Arginine deiminase (ADI) (Giardia duodenalis, UniProt E2RU36).
T1 construct: gene GL50803_00112103; full-length 580 aa, C-terminal His tag (pETite C-His), E. coli BL21-CodonPlus(DE3)-RIL
The test can be described thus: colorimetric citrulline-detection assay of recombinant His-tagged ADI. The class given is biochemical. To be noted: 500 uM Mz-alkyne + 1 mM dithionite (reductive activation of prodrug), 2 h; 1 mM arginine, Hepes pH 7.0, 37 C; covalent.

Test [1] deals with T2, Ornithine carbamoyltransferase (OCT) (Giardia duodenalis, UniProt E2RTT6).
T2 construct: gene GL50803_0010311; native protein in trophozoites, 327 aa
T2 sequence (E2RTT6 1-327): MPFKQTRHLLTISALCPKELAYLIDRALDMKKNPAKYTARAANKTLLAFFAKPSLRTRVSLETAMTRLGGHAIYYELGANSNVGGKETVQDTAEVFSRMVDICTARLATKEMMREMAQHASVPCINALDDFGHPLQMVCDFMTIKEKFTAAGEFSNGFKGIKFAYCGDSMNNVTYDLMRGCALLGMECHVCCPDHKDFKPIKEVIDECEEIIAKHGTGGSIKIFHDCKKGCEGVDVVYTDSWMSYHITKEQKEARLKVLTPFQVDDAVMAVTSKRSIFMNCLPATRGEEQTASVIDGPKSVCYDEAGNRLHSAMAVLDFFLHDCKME
Description: click biotinylation, streptavidin pull-down from treated trophozoites, LC-MS/MS and immunoblot. The class given is cell-based. The following applies: covalent; prodrug reduced in the cells; 100 uM, 2 h.

The target in a further test is T3, Enolase (Giardia duodenalis, UniProt E2RTS6).
T3 construct: gene GL50803_0011118; native protein in trophozoites, 445 aa
T3 sequence (E2RTS6 1-445): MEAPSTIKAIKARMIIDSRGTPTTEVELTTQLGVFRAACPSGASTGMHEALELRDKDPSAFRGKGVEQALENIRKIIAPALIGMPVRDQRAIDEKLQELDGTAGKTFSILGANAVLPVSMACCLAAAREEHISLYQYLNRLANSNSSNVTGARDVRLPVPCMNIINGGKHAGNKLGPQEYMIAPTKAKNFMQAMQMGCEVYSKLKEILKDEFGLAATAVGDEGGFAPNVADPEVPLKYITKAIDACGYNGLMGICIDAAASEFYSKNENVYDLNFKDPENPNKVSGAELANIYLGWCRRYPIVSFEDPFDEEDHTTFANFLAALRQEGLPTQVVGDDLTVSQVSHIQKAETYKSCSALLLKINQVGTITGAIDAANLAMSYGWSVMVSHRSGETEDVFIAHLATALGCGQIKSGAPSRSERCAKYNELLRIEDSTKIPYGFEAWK
The test is described as above. To be noted: covalent; prodrug reduced in the cells; 100 uM, 2 h. The class given is cell-based.

SMILES strings stand for the structures.

Experimental findings from publication PMC7190177, “Click chemistry-facilitated comprehensive identification of proteins adducted by antimicrobial 5-nitroimidazoles for discovery of alternative drug targets against giardiasis” (PLoS Neglected Tropical Diseases, 2020) are described below.

T1 sequence (E2RU36 entry or part of it): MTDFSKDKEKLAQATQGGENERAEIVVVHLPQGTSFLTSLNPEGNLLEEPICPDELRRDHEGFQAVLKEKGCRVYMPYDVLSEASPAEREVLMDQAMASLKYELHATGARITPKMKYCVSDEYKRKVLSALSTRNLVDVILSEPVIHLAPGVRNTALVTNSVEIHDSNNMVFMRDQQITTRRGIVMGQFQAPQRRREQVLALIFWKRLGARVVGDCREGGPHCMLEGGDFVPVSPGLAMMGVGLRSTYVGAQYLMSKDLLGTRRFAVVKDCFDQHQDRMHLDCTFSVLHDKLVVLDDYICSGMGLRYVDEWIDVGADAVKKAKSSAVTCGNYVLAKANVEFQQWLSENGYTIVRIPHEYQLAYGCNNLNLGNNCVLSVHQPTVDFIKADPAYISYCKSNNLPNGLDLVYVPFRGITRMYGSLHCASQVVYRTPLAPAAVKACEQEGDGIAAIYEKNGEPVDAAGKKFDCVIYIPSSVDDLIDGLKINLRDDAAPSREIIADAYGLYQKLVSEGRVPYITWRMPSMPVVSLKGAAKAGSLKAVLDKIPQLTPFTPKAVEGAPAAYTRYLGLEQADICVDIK

On to `C#CCCn1c([N+](=O)[O-])cnc1C` [Mz-alkyne, 1-(But-3-ynyl)-2-methyl-5-nitro-1H-imidazole], for which, on Arginine deiminase (ADI), the inhibition entry is reported as “Wild-type ADI was significantly inhibited by activated Mz-alkyne under cell-free conditions”. For the same molecule, the adduct entry in test [1] is “these proteins were labeled with biotin and thus adducted by Mz-alkyne”; on Enolase, “these proteins were labeled with biotin and thus adducted by Mz-alkyne”.
